{
  "source": "patent US20230134986A1",
  "about": "“GLUCOSE TRIPTOLIDE CONJUGATES AND USES THEREOF” (The Johns Hopkins University, priority 2020, published 2023)",
  "key": {"[1]": {"tested_on": "T7115 (C342T XPB knock-in HEK293T cells)", "experiment": "Proliferation of XPB C342T knock-in cell line T7115 ([3H]-thymidine incorporation)", "type": "cell-based, human", "conditions": "C342T XPB knock-in versus isogenic WT 293T", "text": "Cells and culture conditions. Primary astrocytes (Lonza, Walkersville, Md.; ABM™ Basal Media with AGM™ SingleQuots™ Supplement Pack), fibroblast (ATCC; Fibroblast Basal Medium (ATCC© PCS-201-030™) with Fibroblast Growth Kit-Serum-free (ATCC© PCS-201-040™)), airway epithelial cell (ATCC; Airway Epithelial Cell Basal Medium (ATCC© PCS-300-030™) with Bronchial Epithelial Cell Growth Kit (ATCC© PCS-300-040™)), renal proximal tubule (ATCC; Renal Epithelial Cell Basal Medium (ATCC© PCS-400-030™) with Renal Epithelial Cell Growth Kit (ATCC© PCS-400-040™)), prostate epithelial cell (Lonza; PrEGM™ BulletKit™) and mammary epithelial cell (Lonza; MEBM™ BulletKit™) were kept in a humidified incubator at 37° C. adjusted to 5% CO2. […]"}, "TFIIH": {"biological_target": "T1, TFIIH (Homo sapiens, UniProt P19447)", "T1 construct": "made in house", "experiment": "DNA-dependent ATPase activity assay of TFIIH", "type": "biochemical", "protocol": "ATPase activity assay. The TFIIH complex was purified and its DNA-dependent ATPase assay was performed as previously described (Titov et al. (2011) Nat. Chem. Biol. 7:182-88). Briefly, a 10-μl reaction mixture contained 20 mM Tris (pH 7.9), 4 mM MgCl2, 1 μM of ATP, 0.1 μCi [^γ-^32P]ATP (3000 Ci/mmol), 100 μg/ml BSA, 100 nM RNA Polymerase II promoter positive control DNA, 1 nM TFIIH and indicated concentrations of triptolide or its analogs. The reactions were started by either addition of TFIIH for 2 hr and stopped by addition of 2 μl of 0.5 M EDTA. An aliquot of 1 μl reaction mixture was spotted on PEI-cellulose (sigma) and the chromatogram was developed with 0.5 M LiCi and 1 M HCOOH. The percent of ATP hydrolysis was quantified using a Typhoon FLA 9500 Variable Imager (GE Healthcare)."}, "[2]": {"experiment": "Stability of glutriptolides in human serum (HPLC-MS)", "type": "in vitro ADME", "conditions": "incubation for up to 72 h", "protocol": "Stability of glutriptolides in human serum. Human serum (Sigma, 10% in DMEM media) was treated with 10 μM drug (triptolide or glutriptolides) at room temperature for various time points. The incubation was stopped by placing samples on dry ice followed by overnight storage in −80° C. Frozen samples were then lyophilized and reconstituted in DMSO at room temperature for an hour. Samples were centrifuged at 12,000 RPM for 10 minutes and supernatants loaded into an HPLC-MS with the following conditions: (Varian pursuit XR5 Diphenyl 150×4.6 mm; A phase: Millipore water with 0.1% HCOOH; B phase: Acetonitrile with 0.1% HCOOH; 0-6 min: […]; 6-24 min: 5% B-100% B; 24-28 min: 100% B; 28-29 min: 100% B5% B; 29-30 min: 5% B)."}, "HeLa": {"tested_on": "HeLa", "experiment": "HeLa proliferation under hypoxia ([3H]-thymidine incorporation)", "type": "cell-based, human", "conditions": "1% O2, 48 h post treatment"}},
  "note": "“Also recorded” adds a separate entry of the source.",
  "data": [
    {"smiles": "CC(C)[C@]12O[C@H]1[C@@H]1O[C@]13[C@]1(O[C@H]1C[C@H]1C4=C(CC[C@@]13C)C(=O)OC4)[C@@H]2OC(=O)CCCO[C@@H]1OC(CO)[C@@H](O)C(O)C1O", "note": "(stereo in doubt) [Compound 1]", "values": [
      {"measurement": "sensitivity of T7115 mutant line (proliferation)", "setting": "[1]", "value": "resistant"},
      {"measurement": "inhibition of ATPase activity of TFIIH", "setting": "TFIIH", "value": "only a small fraction of the activity was affected; also recorded: does not inhibit"},
      {"measurement": "stability in human serum", "setting": "[2]", "value": "remained largely intact"},
      {"measurement": "effect of hypoxia on anti-proliferative effect", "setting": "HeLa", "value": "enhances the anti-proliferative effect"}
    ]}
  ]
}
